Where two headings read alike, the source gives them in different places.
Columns and labels:
[1] = Viscosity (stated in words, no method given); format: physicochemical
[2] = format: physicochemical; settings: for Concentration measured by HPLC after treatment: pH 7 buffer, 20° C.
Procedure: A stock pH 7 buffer solution was prepared by adding aqueous sodium hydroxide solution (0.1 M, 145 mL) to aqueous potassium dihydrogen phosphate solution (0.1 M, 250 mL), and then adding sufficient distilled water to adjust the final volume to 500 mL. At least 1 time and up to about 5 times the amount of diclosulam needed for saturation was added to a mixing vessel containing stock buffer solution at the test temperature (e.g., 20° C.). The mixture was magnetically stirred in the dark while being maintained at the test temperature and the samples were intermittently and periodically removed for analysis. The samples were centrifuged using a high speed, temperature-controlled centrifuge at the test temperature for about 20 minutes at ≧12000 G to remove suspended particles. An aliquot of each supernatant was taken for analysis. The concentration of diclosulam in the supernatant was determined by a high pressure liquid chromatography (HPLC) with a reversed phase chromatography column and UV detection. The method should include development of best-fit calibration curves based on at least three standards using linear regression analysis Samples were successively withdrawn from the mixing vessel and analyzed until three successive samples show little or no variation in concentration. The test is preferably replicated to ensure accuracy.

[3] = OD formulation, original concentration 40%
[4] = SG formulation, original concentration 25%
[5] = WG formulation, original concentration 25%

Compound	Viscosity (in words) ([1]; listed as diclosulam in amorphous state)	Concentration measured by HPLC after treatment [2, 3]	Concentration measured by HPLC after treatment [2, 4]	Concentration measured by HPLC after treatment [2, 5]	Viscosity (in words) ([1]; listed as crystalline modification I of diclosulam)	Solubility (in words) [2]
CCOc1nc(F)cc2nc(S(=O)(=O)Nc3c(Cl)cccc3Cl)nn12 [Amorphous diclosulam, 2′,6′-dichloro-5-ethoxy-7-fluoro[1,2,4]triazolo[1,5-c]pyrimidine-2-sulfonanilide, reference compound]	highly viscous	14%	15%	12%	–	–
CCOc1nc(F)cc2nc(S(=O)(=O)Nc3c(Cl)cccc3Cl)nn12 [Diclosulam, crystalline modification I, 2′,6′-dichloro-5-ethoxy-7-fluoro[1,2,4]triazolo[1,5-c]pyrimidine-2-sulfonanilide]	–	35%	24.9%	23%	significant decrease	significant increase
